Source: patent US10538490B2, “Benzylaminopyridylcyclopropanecarboxylic acids, pharmaceutical compositions and uses thereof” (Boehringer Ingelheim International GmbH, priority 2016, dated 2020)
Converted amounts (≈) assume the structure as drawn.

Legend:
human GPR40 receptor = human GPR40 receptor (Homo sapiens, UniProt O14842); experiment: IP1 accumulation measurements using the IPOne assay system; type: cell-based; conditions: 1321N1 cells stably expressing human GPR40 receptor, stimulation 1 h at 37° C.
Sequence of human GPR40 receptor (O14842 whole entry): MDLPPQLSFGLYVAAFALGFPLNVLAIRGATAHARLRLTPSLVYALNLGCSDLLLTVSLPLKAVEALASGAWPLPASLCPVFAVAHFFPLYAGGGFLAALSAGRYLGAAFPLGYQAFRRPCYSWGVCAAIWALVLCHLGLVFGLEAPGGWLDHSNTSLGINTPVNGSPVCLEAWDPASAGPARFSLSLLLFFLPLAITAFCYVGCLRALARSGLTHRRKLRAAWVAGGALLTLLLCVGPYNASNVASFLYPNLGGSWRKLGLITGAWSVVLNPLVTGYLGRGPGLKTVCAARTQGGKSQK
Experimental: IP1 accumulation measurements using the IPOne assay system—1321N1 cells stably expressing human GPR40 receptor (Euroscreen, Belgium) are seeded 24 h before the assay in white 384-well plates in culture medium containing 10% FCS, 1% Na-Pyruvate and 400 μg/mL G418. IPi is assayed according to the manufacturer's description (Cisbio Bioassays, France). In brief, the assay is started by substitution of the culture medium by stimulation buffer (Hepes 10 mM, CaCl2 1 mM, MgCl2 0.5 mM, KCl 4.2 mM, NaCl 146 mM, glucose 5.5 mM and LiCl 50 mM, pH 7.4). Cells are stimulated for 1 h at 37° C., 5% CO2 by addition of the compounds that are diluted in stimulation buffer containing LiCl. Assays are stopped by adding HTRF-conjugates (IP1-d2 and Anti-IP1 cryptate Tb) and lysis buffer, provided by the manufacturer. After an incubation time of 1 h at room temperature plates are measured using an EnVision™, Perkin Elmer. The obtained fluorescence ratios at 665/615 […] are then used to calculate the pEC50 values using Assay Explorer 3.3 Software (Accelrys, Inc.) by interpolation using an IP1 reference curve and subsequent sigmoidal curve fitting allowing for a variable hill slope.

[1] = Aqueous solubility in buffer versus acetonitrile/water (1/1), LC-UV; type: physicochemical; conditions: kinetic from dmso stock, buffer pH 2.2, 24 h shaking, 2.5% DMSO, ">" if more than 90% dissolved
Experimental: The aqueous solubility of the compounds of the invention is determined by comparing the amount dissolved in buffer to the amount in an acetonitrile/water (1/1) solution. Starting from a 10 mM DMSO stock solution aliquots are diluted with acetonitrile/water (1/1) or buffer, respectively. After 24 h of shaking, the solutions are filtrated and analyzed by LC-UV. The amount dissolved in buffer is compared to the amount in the acetonitrile solution.
Solubility is usually being measured from 0.001 to 0.125 mg/mL at a DMSO concentration of 2.5%. If more than 90% of the compound is dissolved in buffer, the value is marked with “>”.

[2] = Chemical stability (degradation kinetics) at pH value of ca. 1.2; type: physicochemical; conditions: pH value of ca. 1.2 (acetonitrile/0.1 M aqueous HCl 2:3), 37° C., HPLC
Experimental: Degradation kinetics is used to simulate chemical stability of compounds in the acidic part of the gastro intestinal tract. […] Their application as medical drugs to treat human diseases is therefore less restricted and troublesome.
The chemical stability of the compounds of the invention at pH value of ca. 1.2 is determined as follows:
Compound is dissolved in an HPLC vial either in a mixture of acetonitrile/0.1 M aqueous HCl (2:3; pH ca. 1.2) or in a mixture of acetonitrile/Mcllvaine buffer pH 7.4 (2:3) to get a concentration of approximately 0.25 mg/ml. The vial was then transferred into an HPLC autosampler system and maintained at a temperature of 37° C. A first sample is taken and injected immediately into a standard HPLC system with a UV DAD detector. Further samples are injected after 2, 4, 6, 8 and 10 hours. Amount of degraded compound is measured by determining the recovery rate of compound [%] for each injection using an HPLC standard gradient method. Therefore the peak area of the main peak for the first injection (AUt0) is determined and set as 100%. Peak area of the main peak is determined also for the further injections (AUtn, n=2, 4, 6, 8, 10) and expressed as fraction of […] [%].

| EC50 (human GPR40 receptor) | solubility at 24 h [1] | Amount of degradation after 2 h [2] | SMILES |
| --- | --- | --- | --- |
| 45 nM | 87 µg/mL (≈ 177 µM) | – | Cc1cc(OCCC(C)(C)O)cc(C)c1-c1ccc(F)c(CNc2ccc([C@H]3C[C@@H]3C(=O)O)cn2)c1 [Example 1] |
| 42 nM | 83 µg/mL (≈ 163 µM) | – | Cc1cc(OCCC(C)(C)O)cc(C)c1-c1cc(CNc2ccc([C@H]3C[C@@H]3C(=O)O)cn2)c(F)cc1F [Example 2] |
| 34 nM | 30 µg/mL (≈ 62.2 µM) | – | O=C(O)[C@H]1C[C@@H]1c1ccc(NCc2ccc(C(F)(F)F)c(-c3ccc(OCC4CC4)cc3)c2)nc1 [Example 7, (1S,2S)-2-{6-[(4′-Cyclopropylmethoxy-6-trifluoromethyl-biphenyl-3-ylmethyl)-amino]-pyridin-3-yl}-cyclopropanecarboxylic acid] |
| 131 nM | > 120 µg/mL | <0.5% | Cc1cccc(C)c1-c1ccc(F)c(CNc2ccc([C@H]3C[C@@H]3C(=O)O)cn2)c1 [Example 18] |
| 41 nM | 83 µg/mL (≈ 186 µM) | – | Cc1ccc(Cl)c(-c2ccc(F)c(CNc3ccc([C@H]4C[C@@H]4C(=O)O)cn3)c2)c1Cl [Example 25] |
| 79 nM | 91 µg/mL (≈ 216 µM) | – | COc1cc(C)c(-c2ccc(F)c(CNc3ccc([C@H]4C[C@@H]4C(=O)O)cn3)c2)c(C)c1 [Example 26] |
| 877 nM | 112 µg/mL (≈ 248 µM) | – | COc1cc(OC)c(-c2ccc(F)c(CNc3ccc([C@H]4C[C@@H]4C(=O)O)cn3)c2)c(OC)c1 [Example 30] |
| 137 nM | 86 µg/mL (≈ 207 µM) | – | Cc1cc(C#N)cc(C)c1-c1ccc(F)c(CNc2ccc([C@H]3C[C@@H]3C(=O)O)cn2)c1 [Example 35] |
| 94 nM | 99 µg/mL (≈ 208 µM) | – | Cc1cc(O[C@H]2CCOC2)cc(C)c1-c1ccc(F)c(CNc2ccc([C@H]3C[C@@H]3C(=O)O)cn2)c1 [Example 38] |
| 100 nM | 87 µg/mL (≈ 177 µM) | – | Cc1cc(OC2CCOCC2)cc(C)c1-c1ccc(F)c(CNc2ccc([C@H]3C[C@@H]3C(=O)O)cn2)c1 [Example 42] |
| 54 nM | 107 µg/mL (≈ 215 µM) | – | Cc1cc(-c2cc(=O)n(C)cn2)cc(C)c1-c1ccc(F)c(CNc2ccc([C@H]3C[C@@H]3C(=O)O)cn2)c1 [Example 43] |
| 15 nM | 78 µg/mL (≈ 162 µM) | – | Cc1cnc(-c2cc(C)c(-c3ccc(F)c(CNc4ccc([C@H]5C[C@@H]5C(=O)O)cn4)c3)c(C)c2)nc1 [Example 53] |
| 220 nM | 122 µg/mL (≈ 234 µM) | – | Cc1cc(OCC2(O)CCOCC2)cc(C)c1-c1ccc(F)c(CNc2ccc([C@H]3C[C@@H]3C(=O)O)cn2)c1 [Example 55] |
| 36 nM | 42 µg/mL (≈ 103 µM) | – | Cc1cccc(C)c1-c1cc(CNc2ccc([C@H]3C[C@@H]3C(=O)O)cn2)c(F)cc1F [Example 61] |
| 31 nM | 84 µg/mL (≈ 181 µM) | – | Cc1ccc(Cl)c(-c2cc(CNc3ccc([C@H]4C[C@@H]4C(=O)O)cn3)c(F)cc2F)c1Cl [Example 67] |
| 59 nM | > 120 µg/mL | – | COc1cc(C)c(-c2cc(CNc3ccc([C@H]4C[C@@H]4C(=O)O)cn3)c(F)cc2F)c(C)c1 [Example 68] |
| 83 nM | 97 µg/mL (≈ 224 µM) | – | Cc1cc(C#N)cc(C)c1-c1cc(CNc2ccc([C@H]3C[C@@H]3C(=O)O)cn2)c(F)cc1F [Example 77] |
| 59 nM | 106 µg/mL (≈ 214 µM) | – | Cc1cc(O[C@@H]2CCOC2)cc(C)c1-c1cc(CNc2ccc([C@H]3C[C@@H]3C(=O)O)cn2)c(F)cc1F [Example 80] |
| 81 nM | – | – | Cc1cc(OCC(C)(C)C#N)cc(C)c1-c1cc(CNc2ccc([C@H]3C[C@@H]3C(=O)O)cn2)c(F)cc1F [Example 88] |
| 65 nM | – | – | Cc1cc(OCc2ccccc2)cc(C)c1-c1cc(CNc2ccc([C@H]3C[C@@H]3C(=O)O)cn2)c(F)cc1F [Example 89] |

| EC50 (human GPR40 receptor) | solubility at 24 h [1] | Amount of degradation after 2 h [2] | SMILES |
| --- | --- | --- | --- |
| 8 nM | 89 µg/mL (≈ 181 µM) | – | Cc1cc(-c2nnn(C)n2)cc(C)c1-c1cc(CNc2ccc([C@H]3C[C@@H]3C(=O)O)cn2)c(F)cc1F [Example 90] |
| 43 nM | – | – | Cc1cc(-c2ccn(C)c(=O)n2)cc(C)c1-c1cc(CNc2ccc([C@H]3C[C@@H]3C(=O)O)cn2)c(F)cc1F [Example 91] |
| 16 nM | 103 µg/mL (≈ 211 µM) | – | Cc1cc(-c2ccnn2C)cc(C)c1-c1cc(CNc2ccc([C@H]3C[C@@H]3C(=O)O)cn2)c(F)cc1F [Example 92] |
| 72 nM | 82 µg/mL (≈ 188 µM) | – | CCc1cccc(CC)c1-c1cc(CNc2ccc([C@H]3C[C@@H]3C(=O)O)cn2)c(F)cc1F [Example 93] |
| 1320 nM | – | – | COc1cc(OC)c(F)c(-c2cc(CNc3ccc([C@H]4C[C@@H]4C(=O)O)cn3)c(F)cc2F)c1F [Example 94] |
| 11 nM | 88 µg/mL (≈ 176 µM) | – | Cc1cnc(-c2cc(C)c(-c3cc(CNc4ccc([C@H]5C[C@@H]5C(=O)O)cn4)c(F)cc3F)c(C)c2)nc1 [Example 95] |
| 114 nM | – | – | CC(C)c1ccccc1-c1cc(CNc2ccc([C@H]3C[C@@H]3C(=O)O)cn2)c(F)cc1F [Example 96] |
| 189 nM | 123 µg/mL (≈ 228 µM) | – | Cc1cc(OCC2(O)CCOCC2)cc(C)c1-c1cc(CNc2ccc([C@H]3C[C@@H]3C(=O)O)cn2)c(F)cc1F [Example 97] |
| 102 nM | – | – | Cc1cc(OCC2(O)CCSCC2)cc(C)c1-c1cc(CNc2ccc([C@H]3C[C@@H]3C(=O)O)cn2)c(F)cc1F [Example 98] |
| 8 nM | 97 µg/mL (≈ 188 µM) | – | COc1cc(-c2cc(C)c(-c3cc(CNc4ccc([C@H]5C[C@@H]5C(=O)O)cn4)c(F)cc3F)c(C)c2)ccn1 [Example 99] |
| 101 nM | – | – | Cc1cc(OCC2(O)CCS(=O)(=O)CC2)cc(C)c1-c1cc(CNc2ccc([C@H]3C[C@@H]3C(=O)O)cn2)c(F)cc1F [Example 100] |
| 39 nM | – | – | Cc1cc(OCC2CCOCC2)cc(C)c1-c1cc(CNc2ccc([C@H]3C[C@@H]3C(=O)O)cn2)c(F)cc1F [Example 101] |
| 420 nM | – | – | CNC(=O)c1cc(C)c(-c2cc(CNc3ccc([C@H]4C[C@@H]4C(=O)O)cn3)c(F)cc2F)c(C)c1 [Example 102] |
| 462 nM | – | – | Cc1cc(C(=O)N(C)C)cc(C)c1-c1cc(CNc2ccc([C@H]3C[C@@H]3C(=O)O)cn2)c(F)cc1F [Example 103] |
| – | – | 5% | Cc1cc(OCCCS(C)(=O)=O)cc(C)c1-c1ccc(F)c2c1CC[C@H]2Oc1ccc([C@H]2C[C@@H]2C(=O)O)cc1 [WO 2013/178575 Example 11] |
| – | < 1 µg/mL | 3% | Cc1cc(C(=O)NCC(C)(C)O)cc(C)c1-c1ccc(F)c2c1CC[C@H]2Oc1ccc([C@H]2C[C@@H]2C(=O)O)cc1 [WO 2013/178575 Example 15, reference compound] |
| – | < 1 µg/mL | 8% | Cc1cc(OCCC(C)(C)O)cc(C)c1-c1ccc(F)c2c1CC[C@H]2Oc1ccc([C@H]2C[C@@H]2C(=O)O)cc1 [WO 2013/178575 Example 17, reference compound] |
| – | – | 8% | Cc1cccc(C)c1-c1ccc(F)c2c1CC[C@H]2Oc1ccc(C2CC2C(=O)O)cc1 (some centres unmarked) [WO 2013/178575 Example 33] |
| – | < 1 µg/mL | – | Cc1cc(-c2nnn(C)n2)cc(C)c1-c1ccc(F)c2c1CC[C@H]2Oc1ccc([C@H]2C[C@@H]2C(=O)O)cc1 [WO 2013/178575 Example 45, reference compound] |
| – | < 1 µg/mL | 2.5% | Cc1c(C#N)cccc1-c1ccc(F)c2c1CC[C@H]2Oc1ccc([C@H]2C[C@@H]2C(=O)O)cc1 [WO 2013/178575 Example 54, reference compound] |

| SMILES | EC50 (human GPR40 receptor) | solubility at 24 h [1] | Amount of degradation after 2 h [2] |
| --- | --- | --- | --- |
| CC(C)(O)CCOc1ccc(-c2cc(CNc3ccc([C@H]4C[C@@H]4C(=O)O)cn3)ccc2C(F)(F)F)cc1 [Example 4, (1S,2S)-2-(6-{[4′-(3-Hydroxy-3-methyl-butoxy)-6-trifluoromethyl-biphenyl-3-ylmethyl]-amino}-pyridin-3-yl)-cyclopropanecarboxylic Acid] | 15 nM | 92 µg/mL (≈ 179 µM) | <0.5% |
